Data: EPA's ToxRefDB 2

Key:
rabbit [1] = conditions: Prenatal developmental toxicity study, new zealand white, Oral, Gavage/Intubation, dose end: 19 GD, group: maternal
rat [2] = conditions: Sub-acute repeat dose toxicity, sprague dawley, Oral, Gavage/Intubation, dose end: 28 day, group: systemic
rat [3] = conditions: Chronic toxicity, sprague dawley, Oral, Gavage/Intubation, dose end: 6 month, group: systemic
rabbit [4] = conditions: Prenatal developmental toxicity study; new zealand white; Oral; Gavage/Intubation; dose end: 19 GD; group: maternal; reproductive / offspring survival early / litter viability other / total litter loss + systemic / in life observation / body weight / body …
dog [5] = conditions: Sub-acute repeat dose toxicity, beagle, Oral, Gavage/Intubation, dose end: 4 week, group: systemic
rat [6] = conditions: Fertility (Segment I), sprague dawley, Oral, Gavage/Intubation, dose end: 7 GD
rat [7] = conditions: Prenatal developmental toxicity study, sprague dawley, Oral, Gavage/Intubation, dose end: 17 GD
mouse [8] = conditions: Carcinogenicity; b6c3f1; Oral; Water; dose end: 90 week; group: systemic; systemic / pathology microscopic / liver / adenoma/carcinoma combined + systemic / pathology microscopic / liver / carcinoma + systemic / …
rat [9] = conditions: Carcinogenicity, other, Oral, Water, dose end: 110 week, group: systemic
rat [10] = conditions: Prenatal developmental toxicity study, sprague dawley, Oral, Gavage/Intubation, dose end: 15 GD
dog [11] = conditions: Chronic toxicity; beagle; Oral; Feed; dose end: 104 week; group: cholinesterase; cholinesterase / cholinesterase / cholinesterase / erythrocyte cholinesterase (che) + cholinesterase / cholinesterase / cholinesterase / …
dog [12] = conditions: Chronic toxicity; beagle; Oral; Feed; dose end: 12 month; group: cholinesterase; cholinesterase / cholinesterase / cholinesterase / brain cholinesterase (che) + cholinesterase / cholinesterase / cholinesterase / …
mouse [13] = conditions: Carcinogenicity, cd1, Oral, Feed, dose end: 108 week
dog [14] = conditions: Chronic toxicity; beagle; Oral; Feed; dose end: 107 week; group: systemic; systemic / pathology gross / eye / [other] + systemic / pathology gross / eye / discolored + systemic / pathology microscopic / eye / [other…
rat [15] = conditions: Combined chronic toxicity/carcinogenicity, fischer, Oral, Feed, dose end: 105 week
[16] = systemic / in life observation / body weight / body weight gain + systemic / in life observation / food consumption / food consumption + …
[17] = systemic / hematology / reticulocyte / reticulocyte + systemic / in life observation / clinical signs / hunched posture + systemic / in life…
[18] = systemic / in life observation / clinical signs / hunched posture + systemic / in life observation / clinical signs / piloerection
[19] = systemic / clinical chemistry / cholesterol / cholesterol + systemic / clinical chemistry / phosphorus / phosphate + systemic / clinical …
[20] = systemic / in life observation / clinical signs / hunched posture + systemic / pathology microscopic / liver / hypertrophy + systemic / in …
[21] = systemic / in life observation / clinical signs / dialated pupils + systemic / in life observation / clinical signs / defecation (diarrhea)
[22] = systemic / in life observation / clinical signs / dialated pupils + systemic / in life observation / clinical signs / defecation (diarrhea…
[23] = group: maternal, reproductive / reproductive performance / estrous cycle / abnormal
[24] = group: parental, systemic / in life observation / body weight / body weight gain + systemic / in life observation / clinical signs / hunched posture + …
[25] = group: developmental, systemic / in life observation / body weight / fetal weight
[26] = group: maternal, systemic / in life observation / body weight / body weight gain + systemic / in life observation / clinical signs / coma + systemic / in …
[27] = systemic / pathology microscopic / kidney / degeneration + systemic / pathology microscopic / stomach / ulcer
[28] = systemic / pathology microscopic / kidney / degeneration + systemic / pathology microscopic / stomach / ulcer + systemic / pathology …
[29] = group: cholinesterase, cholinesterase / cholinesterase / cholinesterase / erythrocyte cholinesterase (che) + cholinesterase / cholinesterase / cholinesterase / …
[30] = group: developmental, developmental / developmental malformation / bone / incomplete ossification
[31] = group: cholinesterase, cholinesterase / cholinesterase / cholinesterase / brain cholinesterase (che) + cholinesterase / cholinesterase / cholinesterase / …
[32] = group: systemic, systemic / organ weight / kidney / relative to body weight + systemic / pathology microscopic / heart / lymphoma malignant
[33] = group: systemic, systemic / organ weight / kidney / relative to body weight + systemic / pathology microscopic / heart / lymphoma malignant + systemic / …
[34] = group: systemic, systemic / pathology gross / harderian gland / degeneration + systemic / in life observation / body weight / body weight + systemic / in …

## O=C(N[C@@H](c1ccccc1)[C@@H]1CCCCN1)c1cccc(C(F)(F)F)c1Cl
Rabbit [1]; systemic / in life observation / body weight / body weight gain + systemic / in life observation / food consumption / food consumption
  LEL: 15 mg/kg/day
Rabbit [1]; [16]
  LOAEL: > 30 mg/kg/day
  NEL: 5 mg/kg/day
  NOAEL: ≥ 30 mg/kg/day
Rat [2]; [17]
  LOAEL: 25 mg/kg/day
  NOAEL: 5 mg/kg/day
Rat [2]; [18]
  LEL: 5 mg/kg/day
  NEL: < 5 mg/kg/day
Rat [3]; [19]
  LOAEL: > 50 mg/kg/day
  NOAEL: ≥ 50 mg/kg/day
Rat [3]; [20]
  LEL: 5 mg/kg/day
  NEL: < 5 mg/kg/day
Rabbit [4]
  LEL: 30 mg/kg/day
  LOAEL: 30 mg/kg/day
  NEL: 10 mg/kg/day
  NOAEL: 10 mg/kg/day
Dog [5]; [21]
  LEL: 1 mg/kg/day
  NEL: < 1 mg/kg/day
Dog [5]; [22]
  LOAEL: > 10 mg/kg/day
  NOAEL: ≥ 10 mg/kg/day
Rat [6]; [23]
  LEL: 50 mg/kg/day
  LOAEL: > 50 mg/kg/day
  NEL: 25 mg/kg/day
  NOAEL: ≥ 50 mg/kg/day
Rat [6]; [24]
  LEL: 25 mg/kg/day
  LOAEL: 25 mg/kg/day
  NEL: 5 mg/kg/day
  NOAEL: 5 mg/kg/day
Rat [7]; [25]
  LEL: 25 mg/kg/day
  LOAEL: 25 mg/kg/day
  NEL: 5 mg/kg/day
  NOAEL: 5 mg/kg/day
Rat [7]; group: maternal, systemic / in life observation / body weight / body weight gain
  LOAEL: 25 mg/kg/day
Rat [7]; [26]
  NEL: 5 mg/kg/day
  NOAEL: 5 mg/kg/day
Rat [7]; group: maternal, systemic / in life observation / body weight / body weight gain + systemic / in life observation / food consumption / food consumption
  LEL: 25 mg/kg/day

## C1COCCO1 [1,4-Dioxane]
Mouse [8]
  LEL: 380 mg/kg/day
  LOAEL: > 830 mg/kg/day
  NEL: < 380 mg/kg/day
  NOAEL: ≥ 830 mg/kg/day
Rat [9]; [27]
  LOAEL: 240 mg/kg/day
  NOAEL: < 240 mg/kg/day
Rat [9]; [28]
  LEL: 240 mg/kg/day
  NEL: < 240 mg/kg/day

## CCOP(=S)(OCC)SCCSCC [Disulfoton]
Rat [10]; [29]
  LEL: 0.3 mg/kg/day
  LOAEL: 0.3 mg/kg/day
  NEL: 0.1 mg/kg/day
  NOAEL: 0.1 mg/kg/day
Rat [10]; [30]
  LEL: 1 mg/kg/day
  LOAEL: 1 mg/kg/day
  NEL: 0.3 mg/kg/day
  NOAEL: 0.3 mg/kg/day
Dog [11]
  LEL: 0.05 mg/kg/day
  LOAEL: 0.05 mg/kg/day
  NEL: 0.025 mg/kg/day
  NOAEL: 0.025 mg/kg/day
Dog [12]
  LEL: 0.094 mg/kg/day
  LOAEL: 0.094 mg/kg/day
  NEL: 0.013 mg/kg/day
  NOAEL: 0.013 mg/kg/day
Mouse [13]; [31]
  LEL: 2.4 mg/kg/day
  LOAEL: 2.4 mg/kg/day
  NEL: 0.6 mg/kg/day
  NOAEL: 0.6 mg/kg/day
Mouse [13]; [32]
  LEL: 0.15 mg/kg/day
  NEL: < 0.15 mg/kg/day
Mouse [13]; [33]
  LOAEL: > 2.4 mg/kg/day
  NOAEL: ≥ 2.4 mg/kg/day
Dog [14]
  LEL: 1.5 mg/kg/day
  LOAEL: 1.5 mg/kg/day
  NEL: 0.0375 mg/kg/day
  NOAEL: 0.0375 mg/kg/day
Rat [15]; [31]
  LEL: 0.04 mg/kg/day
  LOAEL: 0.04 mg/kg/day
  NEL: < 0.04 mg/kg/day
  NOAEL: < 0.04 mg/kg/day
Rat [15]; group: systemic, systemic / pathology gross / harderian gland / degeneration
  LOAEL: 0.65 mg/kg/day
Rat [15]; [34]
  LEL: 0.65 mg/kg/day
  NEL: 0.165 mg/kg/day
  NOAEL: 0.165 mg/kg/day
